Common to all, as to assay type: cell-based, human
The test system of one test is naïve hPSC. The test can be described thus: hALEC differentiation in AP after capacitation in different conditions. As to conditions: 3 days capacitation in the named condition, then AP; for hALEC differentiation after capacitation condition: morphology and markers. The protocol: (§1) FIGS. 3 (A to I). Signalling requirement for hALEC differentiation: FIG. 3(A) depicts experimental outline; naïve hPSC were capacitated in different conditions for 3 days (2uM XAV939 in N2B27 basal medium (“XAV939”), N2B27 basal medium only (“N2B27”), 1 uM A8301 in N2B27 basal medium (“A8301”), or medium E8 for culturing primed hPSCs (“E8”)), and then differentiated to hALEC in AP media. FIG. 3(B) is whole-well view of cells after hALEC induction stained with fluorescently labelled phalloidin. […] FIGS. 3(F) and (G) show images of cells stained with fluorescently labelled phalloidin and qRT-PCR results, respectively, of hALEC differentiated in the presence of alternative MAPK inhibitors (1 uM PD0325901, or 5 nM, 10 nM or 30 nM Trametinib). FIGS. 3(H) and (I) show images of cells stained with fluorescently labelled phalloidin and qRT-PCR results, respectively, for hALEC differentiated in the presence of alternative TGFb pathway inhibitors (1 uM A8301; 10 or 20 uM SB431542; 1 uM or 5 uM LY2109761; 5 uM or 10uM or 20 uM LY364947).
WNT inhibition is beneficial but not essential for the formative transition of hPSC, which is rather guided by their autocrine signalling (Rostovskaya et al. Development 2019). We induced formative transition by the range of conditions: (1) WNT inhibitor XAV939 in N2B27 basal medium; (2) simple withdrawal of the factors (PD0325901, Go6983, XAV939, LIF) for naïve hPSC maintenance from the medium and culturing in basal N2B27 conditions; (3) TGFb inhibitor A8301 in N2B27 basal medium; (4) E8 medium containing TGFb and FGF2 for culturing primed hPSC (Chen et al. Nat Methods 2011); all for 3 days, and then applied AP conditions for differentiation (FIG. 3A). […] Therefore, the ability to form hALEC capable of self-assembly into spheroids, is an intrinsic property of hPSC that is established during capacitation, rather than a property that is acquired in response to exogenous WNT inhibition.

The test system of test [1] is hPSC after 3-5 days of the capacitation. The test can be described thus: Signalling requirement for hALEC formation (single, joint and alternative MAPK, TGFb, BMP inhibitors). As to conditions: for efficient formation of 3D bubble-like epithelial structures and upregulation of amnion markers: A8301 only, PD03 only or both (AP); for induction of hALEC by alternative MAPK or TGFb pathway inhibitor: Trametinib 5, 10 or 30 nM, SB431542 10 or 20 uM, LY2109761 1 or 5 uM, LY364947 5, 10 or 20 uM. The protocol:
as §1
We next assessed whether the joint inhibition of the TGFb/Activin/Nodal and MAPK pathways is required for the formation of hALEC. We tested this using hPSC after 3-5 days of the capacitation in independent experiments by supplementing their media with either A8301 only (“A”), PD03 only (“P”), neither of the inhibitors (“none”), or both (“AP”).
Therefore, hALEC differentiation is induced specifically by inhibition of MAPK and TGFb pathways and not by other effects of PD0325901 and A8301.
The formation of cells expressing a subset of amnion markers has been previously reported after treating conventional primed hPSC with the growth factor BMP4 (Shao et al. Nat Mater 2017; Shao et al. Nat Commun 2017; Zheng et al. Nature 2019). However, this finding is at odds with the timing of events that occur during embryo development. In particular, primed hPSC closely resemble late post-implantation epiblast cells just prior to the onset of gastrulation (Nakamura et al. Nature 2016), a developmental stage that occurs in humans at around 11-12dpf (Carnegie stage, CS, 5c), which is several days after the emergence of the amnion in the implanting embryo at 7dpf (CS 5a) (The Virtual Human Embryo Atlas). Therefore, BMP-dependent route of differentiation reported in the aforementioned works can’t explain the mechanism of formation of amnion and amniotic cavity in primate embryos. Nevertheless, we tested whether BMP signalling was required for hALEC differentiation by adding a selective BMP receptor (ALK-2, -3, -6) inhibitor called LDN193189 to the AP-containing media (a combination referred to as “DAP” hereafter).

Test [2] relates to hPSC at different stages of capacitation. As to the kind of experiment: Competence window for hALEC differentiation during capacitation (AP or DAP). As to conditions: hPSC capacitated 8 days, AP medium plus BMP inhibitor. An excerpt: FIGS. 4 (A to G). A competence window for hALEC differentiation during the formative transition: FIG. 4(A) depicts the experimental outline. hPSC (HNES1 line) were capacitated in XAV939 and analysed for their ability to form hALEC each day of capacitation, by treatment with AP of DAP for 4 days. […] FIG. 4(D) is a qRT-PCR for markers in hALEC differentiated using AP medium after various length of capacitation. FIG. 4(E) depicts the immunofluorescence for markers (OCT4, CDX2 and E-cadherin) during the time course of hALEC differentiation using naïve and partially capacitated HNES1. […] FIG. 4(G) is the flow cytometry analysis.
To identify a window during the progression from naïve to primed pluripotency where hPSC have the competence to form amnion, we systematically tested the ability of hPSC at different stages of capacitation to respond to hALEC-inducing cues (FIG. 4A). In these experiments, hALEC differentiation was induced using two alternative media compositions – AP and DAP – in order to assess whether the requirement for BMP pathway activity is altered this window of competence. […] The efficiency of hALEC formation was evaluated visually by their efficiency to form 3D epithelial spheres (FIGS. 4B and 4C), and markers expression (FIG. 4D). […]

As to `Cc1cccc(-c2nn(C(=S)Nc3ccccc3)cc2-c2ccnc3ccccc23)n1` [A8301], in the test on naïve hPSC, the “efficiency of hALEC differentiation after capacitation condition” value is reported as “consistently high” and the “hALEC differentiation after capacitation condition” value is “successfully differentiated to hALEC”. Besides, the “efficient formation of 3D bubble-like epithelial structures and upregulation of amnion markers” value in test [1] was “Only the cells treated by both inhibitors were able to efficiently form”.
Turning to `COc1cc(-c2cc(-c3cccc(O)c3)cnc2N)cc(OC)c1OC` [K02288], in test [2], the “extension of the window of competence by alternative BMP inhibitor” value is “extension of the window of competence was observed”.
Take `c1ccc2c(-c3cnn4cc(-c5ccc(N6CCNCC6)cc5)cnc34)ccnc2c1` [LDN193189]: the “effect of blocking BMP signalling on hALEC differentiation” value in test [1] (added to AP-containing media (DAP)) is “did not interfere with hALEC differentiation”.
Regarding `c1ccc(-c2[nH]ncc2-c2ccnc3ccccc23)nc1` [LY364947], in test [1], the “induction of hALEC by alternative MAPK or TGFb pathway inhibitor” value was “successful induction of hALEC”.
The same measure, in the same setting: under `c1ccc(-c2nn3c(c2-c2ccnc4cc(OCCN5CCOCC5)ccc24)CCC3)nc1` [LY2109761] stands “successful induction of hALEC”.
Regarding `O=C(NOC[C@H](O)CO)c1ccc(F)c(F)c1Nc1ccc(I)cc1F` [PD03], in test [1], the “efficient formation of 3D bubble-like epithelial structures and upregulation of amnion markers” value is listed as “Only the cells treated by both inhibitors were able to efficiently form”.
Take `NC(=O)c1ccc(-c2nc(-c3ccc4c(c3)OCO4)c(-c3ccccn3)[nH]2)cc1` [SB431542]: in test [1], the “induction of hALEC by alternative MAPK or TGFb pathway inhibitor” value is listed as “successful induction of hALEC”.
Turning to `Oc1nc(-c2ccc(C(F)(F)F)cc2)nc2c1CSCC2` [XAV939], in the test on naïve hPSC, the “efficiency of hALEC differentiation after capacitation condition” value is on record as “consistently high” and the “hALEC differentiation after capacitation condition” value was “successfully differentiated to hALEC”.
